Data reported in PubChem BioAssay (NCI).
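Exposure lasted 48 hours, with cells grown in 96-well plates and compounds tested at five concentrations. GI50 marks 50% less growth. TGI: total growth inhibition.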

Assays:
Assay in all cases: NCI-60 cell line screen, 48 h
786-0 renal = system: 786-0 renal
A498 renal = system: A498 renal
A549 NSCLC = system: A549 NSCLC
BT-549 breast = system: BT-549 breast
CAKI-1 renal = system: CAKI-1 renal
CCRF-CEM leukemia = system: CCRF-CEM leukemia
COLO 205 colon = system: COLO 205 colon
DU-145 prostate = system: DU-145 prostate
EKVX NSCLC = system: EKVX NSCLC
HCC-2998 colon = system: HCC-2998 colon
HCT-116 colon = system: HCT-116 colon
HCT-15 colon = system: HCT-15 colon
HL-60(TB) leukemia = system: HL-60(TB) leukemia
HOP-62 NSCLC = system: HOP-62 NSCLC
HOP-92 NSCLC = system: HOP-92 NSCLC
HS 578T breast = system: HS 578T breast
HT29 colon = system: HT29 colon
IGROV1 ovarian = system: IGROV1 ovarian
K-562 leukemia = system: K-562 leukemia
KM12 colon = system: KM12 colon
LOX IMVI melanoma = system: LOX IMVI melanoma
M14 melanoma = system: M14 melanoma
MALME-3M melanoma = system: MALME-3M melanoma
MCF7 breast = system: MCF7 breast
MDA-MB-231 breast = system: MDA-MB-231 breast
MDA-MB-435 = system: MDA-MB-435
MOLT-4 leukemia = system: MOLT-4 leukemia
NCI-H226 lung = system: NCI-H226 lung
NCI-H23 lung = system: NCI-H23 lung
NCI-H460 lung = system: NCI-H460 lung
NCI-H522 lung = system: NCI-H522 lung
NCI/ADR-RES ovarian = system: NCI/ADR-RES ovarian
OVCAR-3 ovarian = system: OVCAR-3 ovarian
OVCAR-4 ovarian = system: OVCAR-4 ovarian
OVCAR-5 ovarian = system: OVCAR-5 ovarian
OVCAR-8 ovarian = system: OVCAR-8 ovarian
PC-3 prostate = system: PC-3 prostate
RXF 393 renal = system: RXF 393 renal
SF-268 CNS = system: SF-268 CNS
SF-295 CNS = system: SF-295 CNS
SF-539 CNS = system: SF-539 CNS
SK-MEL-2 melanoma = system: SK-MEL-2 melanoma
SK-MEL-28 melanoma = system: SK-MEL-28 melanoma
SK-MEL-5 melanoma = system: SK-MEL-5 melanoma
SK-OV-3 ovarian = system: SK-OV-3 ovarian
SN12C renal = system: SN12C renal
SNB-19 CNS = system: SNB-19 CNS
SR leukemia = system: SR leukemia
SW-620 colon = system: SW-620 colon
T-47D breast = system: T-47D breast
TK-10 renal = system: TK-10 renal
U251 CNS = system: U251 CNS
UACC-257 melanoma = system: UACC-257 melanoma
UACC-62 melanoma = system: UACC-62 melanoma
UO-31 renal = system: UO-31 renal

## O=C(Nc1ccc(Br)cc1F)c1cc(I)ccc1O
786-0 renal
  GI50: 3.32 µM
  TGI: 11.4 µM
A498 renal
  GI50: 1320 nM
  TGI: 3.46 µM
A549 NSCLC
  GI50: 3.17 µM
  TGI: > 100 µM
BT-549 breast
  GI50: 2260 nM
  TGI: 6.43 µM
CAKI-1 renal
  GI50: 1830 nM
  TGI: 6.51 µM
CCRF-CEM leukemia
  GI50: 3.58 µM
  TGI: > 100 µM
COLO 205 colon
  GI50: 12.8 µM
  TGI: 30.8 µM
DU-145 prostate
  GI50: 3.89 µM
  TGI: > 100 µM
EKVX NSCLC
  GI50: 2250 nM
  TGI: 28.6 µM
HCC-2998 colon
  GI50: 3.14 µM
  TGI: 12.7 µM
HCT-116 colon
  GI50: 2790 nM
  TGI: 11.4 µM
HCT-15 colon
  GI50: 2940 nM
  TGI: 12.7 µM
HL-60(TB) leukemia
  GI50: 2130 nM
  TGI: 4.79 µM
HOP-62 NSCLC
  GI50: 2270 nM
  TGI: 8.15 µM
HOP-92 NSCLC
  GI50: 1080 nM
  TGI: 4.8 µM
HS 578T breast
  GI50: 2430 nM
  TGI: 9.1 µM
HT29 colon
  GI50: 16.9 µM
  TGI: 78.3 µM
IGROV1 ovarian
  GI50: 1950 nM
  TGI: > 100 µM
K-562 leukemia
  GI50: 2520 nM
  TGI: > 100 µM
KM12 colon
  GI50: 2980 nM
  TGI: 9.14 µM
LOX IMVI melanoma
  GI50: 2780 nM
  TGI: 14.3 µM
M14 melanoma
  GI50: 2880 nM
  TGI: 13.1 µM
MALME-3M melanoma
  GI50: 2070 nM
  TGI: 5.56 µM
MCF7 breast
  GI50: 1970 nM
  TGI: > 100 µM
MDA-MB-231 breast
  GI50: 1770 nM
  TGI: 6.28 µM
MDA-MB-435
  GI50: 3.04 µM
  TGI: 10.1 µM
MOLT-4 leukemia
  GI50: 2660 nM
  TGI: 7.48 µM
NCI-H226 lung
  GI50: 1900 nM
  TGI: 5.48 µM
NCI-H23 lung
  GI50: 1900 nM
  TGI: 6.01 µM
NCI-H460 lung
  GI50: 3.15 µM
  TGI: > 100 µM
NCI-H522 lung
  GI50: 2110 nM
  TGI: 7.16 µM
NCI/ADR-RES ovarian
  GI50: 2630 nM
  TGI: 8.5 µM
OVCAR-3 ovarian
  GI50: 3.06 µM
  TGI: > 100 µM
OVCAR-4 ovarian
  GI50: 3.16 µM
  TGI: > 100 µM
OVCAR-5 ovarian
  GI50: 3.17 µM
  TGI: > 100 µM
OVCAR-8 ovarian
  GI50: 3.01 µM
  TGI: 15.9 µM
PC-3 prostate
  GI50: 2310 nM
  TGI: 7.86 µM
RXF 393 renal
  GI50: 2550 nM
  TGI: 7.54 µM
SF-268 CNS
  GI50: 2400 nM
  TGI: 29.6 µM
SF-295 CNS
  GI50: 2110 nM
  TGI: 4.85 µM
SF-539 CNS
  GI50: 2800 nM
  TGI: 12.1 µM
SK-MEL-2 melanoma
  GI50: 2000 nM
  TGI: 5.71 µM
SK-MEL-28 melanoma
  GI50: 2620 nM
  TGI: 11.3 µM
SK-MEL-5 melanoma
  GI50: 1480 nM
  TGI: 2980 nM
SK-OV-3 ovarian
  GI50: 2130 nM
  TGI: 7.95 µM
SN12C renal
  GI50: 2750 nM
  TGI: 9.91 µM
SNB-19 CNS
  GI50: 3.08 µM
  TGI: > 100 µM
SR leukemia
  GI50: 2710 nM
  TGI: > 100 µM
SW-620 colon
  GI50: 3.07 µM
  TGI: 17.7 µM
T-47D breast
  GI50: 1920 nM
  TGI: 6.35 µM
TK-10 renal
  GI50: 4.77 µM
  TGI: 9.43 µM
U251 CNS
  GI50: 2670 nM
  TGI: > 100 µM
UACC-257 melanoma
  GI50: 2430 nM
  TGI: 6.88 µM
UACC-62 melanoma
  GI50: 1370 nM
  TGI: 4.43 µM
UO-31 renal
  GI50: 1520 nM
  TGI: 7.51 µM
